The nature of series [1]: Solubility of the synthesized peptides. It is filed as physicochemical. As to the method:
Peptide JP1 and others were synthesized by GL Biochem (Shanghai) Ltd. and Hybio Pharmaceutical Co., Ltd. (Shenzhen, China, under standard GMP conditions. Purity >98%, water-soluble. Freeze dried powder is stored for a long time at −20° C.

The subject of a further series is CNV lesions. As to conditions: mouse, in vivo, ip. As to the method: One week after laser induction, mice with choroidal neovascularization were randomly divided into two groups (10 mice per group), and injected intraperitoneally with 5 mg of FITC-JP1 and 0.99 mg of FITC 100 uL (both groups were injected with equal amounts of FITC intraperitoneally), respectively. The intensity of FITC in the living retina was determined using the FFA method (n=5/group). To evaluate the accumulation of FITC in CNV lesions, mice were euthanized at 1, 3, 8, 24, and 48 h after intraperitoneal injection of FITC-JP1 or FITC, respectively. Then, choroidal spreads were observed by fluorescence microscopy.

Series [2] deals with streptozotocin (STZ)-induced diabetes mouse model. Briefly: Streptozotocin-induced diabetes mouse model: retinal vascular density and leakage. It is filed as in vivo. As to conditions: STZ diabetic mice, intraocular injection once a week, 4 times; compared to normal mice of the same age. As to the method: C57BL/6 mice (male, 3-5 weeks old) were administered with intraperitoneal injection of streptozotocin (STZ) (7.5 mg/mL; S-0130, Sigma Aldrich, St. Louis, MO, USA), fresh dissolved Na Citrate (CAM) buffer (pH: 4.5-4.7; S4641, Sigma) at a dose of 50 mg/kg, once daily, for 5 consecutive days. After one week, blood sugar ≥300 mg/dL was regarded as the onset of diabetes. Only mice with sustained high sugar for 3 weeks were used for subsequent experiments. […] The blood glucose of mice was measured every month to confirm the status of diabetes. Two months after the onset of diabetes, the mice were randomly divided into four groups with 10 mice in each group. […]
After the mice were anesthetized, 1 mL of PBS containing 40 mg/mL fluorescein isothiocyanate-glucan was perfused into the left ventricle (average mol wt: 2×10^6, Sigma, St Louis, MO, USA). […] Stretched preparation was made, and observe the flat bracket using a fluorescence microscope and take photos. The vascular density of capillary networks was analyzed using Angio Tool image analysis software. […]
Evans blue (45 mg/kg) was injected through the tail vein of mice for more than 10 s. […] Plasma Evans blue concentration was determined by taking 100 uL of blood. […]

Where a SMILES comes first, the peptide text is derived from it.

Turning to `N=C(N)NCCC[C@H](NC(=O)[C@H](Cc1ccccc1)NC(=O)[C@H](CCCNC(=N)N)NC(=O)[C@H](CC(=O)O)NC(=O)[C@H](COP(=O)(O)O)NC(=O)CNC(=O)[C@@H]1CCCN1C(=O)[C@@H](N)Cc1ccccc1)C(=O)NCC(=O)N[C@@H](CC(=O)O)C(=O)O` [JP1] (HELM PEPTIDE1{F.P.G.[O=C([C@H](COP(=O)(O)O)N[*:1])[*:2]].D.R.F.R.G.D}$$$$V2.0; N-terminus and C-terminus assumed), the solubility entry in series [1] is on record as “water-soluble”. In addition, the “accumulation of FITC at CNV lesions (retinal choroidal plain films)” value with CNV lesions is “enhanced the accumulation of FITC at CNV lesions”.

B1: Ranibizumab (antibody, chains of the INN, looked up, V domains shown)
VH: EVQLVESGGGLVQPGGSLRLSCAASGYDFTHYGMNWVRQAPGKGLEWVGWINTYTGEPTYAADFKRRFTFSLDTSKSTAYLQMNSLRAEDTAVYYCAKYPYYYGTSHWYFDVWGQGTLVTVSS
VL: DIQLTQSPSSLSASVGDRVTITCSASQDISNYLNWYQQKPGKAPKVLIYFTSSLHSGVPSRFSGSGSGTDFTLTISSLQPEDFATYYCQQYSTVPWTFGQGTKVEIK
modifications: Fab
notes: anti-VEGF antibody drug used as positive control
On to B1, for which the retinal vascular density result in series [2] is given as “no significant decrease in retinal vascular density”.

Source of the values: patent US20240277797A1, “METHOD FOR TREATING OR PREVENTING NEOVASCULAR EYE DISEASE” (Suzhou Mingren Pharmaceutical Biotechnology Co., Ltd., priority 2022, published 2024).
